Experimental data from US5342980A, “Fungicidal agents” (American Cyanamid Company, priority 1992, dated 1994).

Columns and labels:
[1] = system: Fusarium oxysporum f. sp. cucumerinum; assay: In vitro fungicidal evaluation, growth inhibition (FUSOXC); format: cell-based; set-up: scale not given here; settings: 25 ppm, 3-4 days at 21° C.
Protocol: (§1) Test compounds are dissolved in acetone and dispersed into cell well plates containing a suspension of ground fungal mycelia in a nutrient broth. Assay plates are incubated for 3-4 days at 21° C. Growth inhibition is measured visually and is rated using the following scale:
(§2) Untreated controls, solvent blanks and reference standards are included in each test.
(§3) Assay fungi include the plant pathogens, Pythium ultimum (Pythul); Rhizoctonia solani (Rhizso); Fusarium oxysporum f. sp. cucumerinum (Fusoxc); and Pseudocercosporella herpotrichoides (Psdche).
(§4) When more than one test is run, the data are averaged.

[2] = system: Pythium ultimum; assay: In vitro fungicidal evaluation, growth inhibition (PYTHUL); format: cell-based; set-up: scale not given here; settings: 25 ppm, 3-4 days at 21° C.
Protocol: as §1, §2, §3, §4

[3] = system: Pseudocercosporella herpotrichoides; assay: In vitro fungicidal evaluation, growth inhibition (PSDCHE); format: cell-based; set-up: scale not given here; settings: 25 ppm, 3-4 days at 21° C.
Protocol: as §1, §2, §3, §4

[4] = system: Rhizoctonia solani; assay: In vitro fungicidal evaluation, growth inhibition (RHIZSO); format: cell-based; set-up: scale not given here; settings: 25 ppm, 3-4 days at 21° C.
Protocol: as §1, §2, §3, §4

[5] = system: Botrytis cinerea; assay: In vivo fungicidal evaluation, Pepper Botrytis (PB); settings: 200 ppm, plants sprayed before inoculation
[6] = system: Erysiphe graminis f. sp. tritici; assay: In vivo fungicidal evaluation, Wheat Powdery Mildew (WPM); settings: 200 ppm, plants sprayed before inoculation
[7] = system: Alternaria solani; assay: In vivo fungicidal evaluation, Tomato Early Blight (TEB); settings: 200 ppm, plants sprayed before inoculation
[8] = system: Pyricularia oryzae; format: in vivo; settings: 200 ppm, plants sprayed before inoculation
[9] = system: Plasmopara viticola; assay: In vivo fungicidal evaluation, Grape Downy Mildew (GDM); settings: 200 ppm, plants sprayed before inoculation
[10] = system: Cercospora beticola; assay: In vivo fungicidal evaluation, Sugar Beet Cercospora (SBC); settings: plants sprayed before inoculation
[11] = system: Venturia inaequalis; assay: In vivo fungicidal evaluation, Apple Scab (AS); settings: 200 ppm, plants sprayed before inoculation

| Compound | growth inhibition rating, FUSOXC [1] | growth inhibition rating, PYTHUL [2] | growth inhibition rating, PSDCHE [3] | growth inhibition rating, RHIZSO [4] | disease control rating, PB [5] | disease control rating, WPM [6] | disease control rating, TEB [7] | disease control rating, RB [8] | disease control rating, GDM [9] | disease control rating, SBC ([10]; 200 ppm) | disease control rating, AS [11] | disease control rating, SBC ([10]; 400 ppm) |
| --- | --- | --- | --- | --- | --- | --- | --- | --- | --- | --- | --- | --- |
| CC(C)(C)C(=O)C(=S)N(Cc1ccccc1)OC(=O)Nc1ccccc1 [Carbanilate ester of N-benzyl-3,3-dimethyl-2-oxo-1-thiobutyrohydroxamate] | 0.5 | 6.0 | 0.0 | 2.5 |  |  |  |  |  |  |  |  |
| CN(O)C(=S)C(=O)C1(C)CC1 [N,1-dimethyl-alpha-thio-cyclopropaneglyoxylohydroxamic acid] | 0.5 | 7.0 | 0.0 | 0.0 |  |  |  |  |  |  |  |  |
| CC(C)(C)C(=O)C(=S)N([O-])Cc1ccccc1.CC(C)(C)C(=O)C(=S)N([O-])Cc1ccccc1.[Cu+2] [N-benzyl-3,3-dimethyl-2-oxo-1-thiobutyrohydroxamic acid copper(+2) chelate] | 0.0 | 1.5 | 0.0 | 1.5 |  |  |  |  |  |  |  |  |
| CC(C)(C)C(=O)C(=S)N([O-])Cc1ccccc1.CC(C)(C)C(=O)C(=S)N([O-])Cc1ccccc1.[Zn+2] [N-benzyl-3,3-dimethyl-2-oxo-1-thiobutyrohydroxamic acid zinc(+2) chelate] | 0.0 | 4.0 | 0.0 | 0.0 | 0.0 | 0.0 | 0.0 | 0.0 | 0.0 | 6.0 | 0.0 |  |
| CC(C)(C)C(=O)C(=S)N(O)Cc1ccccc1 [N-benzyl-3,3-dimethyl-2-oxo-1-thiobutyrohydroxamic acid] | 3.5 | 7.0 | 7.0 | 4.5 |  |  |  |  |  |  |  |  |
| CC(C)(C)C(=O)C(=S)N([O-])C1CCCC1.CC(C)(C)C(=O)C(=S)N([O-])C1CCCC1.[Cu+2] [N-cyclopentyl-3,3-dimethyl-2-oxo-1-thiobutyrohydroxamic acid copper(+2) chelate] | 0.0 | 0.0 | 0.0 | 0.0 | 0.0 | 0.0 | 0.0 | 0.0 | 0.0 | 0.5 | 0.0 | 2.0 |
| CC(C)(C)C(=O)C(=S)N(O)C1CCCC1.CC(C)(C)C(=O)C(=S)N(O)C1CCCC1.[Zn+2] [N-cyclopentyl-3,3-dimethyl-2-oxo-1-thiobutyrohydroxamic acid zinc(+2) chelate] | 3.7 | 7.0 | 3.0 | 3.3 | 0.0 | 0.0 | 0.0 | 0.0 | 0.0 | 2.3 | 0.0 | 1.0 |
| CC(C)(C)C(=O)C(=S)N(O)C1CCCC1 [N-cyclopentyl-3,3-dimethyl-2-oxo-1-thiobutyrohydroxamic acid] | 1.5 | 3.0 | 1.5 | 1.5 | 0.0 | 0.0 | 0.0 | 0.0 | 0.0 | 0.3 | 0.0 |  |
| CC(C)(C)C(=O)C(=S)N([O-])C1CCCC1.CC(C)(C)C(=O)C(=S)N([O-])C1CCCC1.CC(C)(C)C(=O)C(=S)N([O-])C1CCCC1.[Fe+3] [N-cyclopentyl-3,3-dimethyl-2-oxo-1-thiobutyrohydroxamicacid iron(+3) chelate] | 0.0 | 0.0 | 0.0 | 0.0 | 0.0 | 0.0 | 0.0 | 0.0 | 0.0 | 0.8 | 0.0 | 1.8 |
| CC(C)N([O-])C(=S)C(=O)C(C)(C)C.CC(C)N([O-])C(=S)C(=O)C(C)(C)C.[Zn+2] [N-isopropyl-3,3-dimethyl-2-oxo-1-thiobutyrohydroxamic acid zinc (+2) chelate] | 2.7 | 6.3 | 0.0 | 1.0 | 2.0 | 0.0 | 0.0 | 0.0 | 3.0 | 0.0 | 0.0 |  |
| CN([O-])C(=S)C(=O)C12CC3CC(CC(C3)C1)C2.CN([O-])C(=S)C(=O)C12CC3CC(CC(C3)C1)C2.[Cu+2] [N-methyl-alpha-thio-1-adamantaneglyoxylohydroxamic acid copper(+2) chelate] | 0.0 | 0.0 | 0.0 | 0.0 | 0.0 | 0.0 | 0.0 | 0.0 | 0.0 | 0.5 | 0.0 | 1.8 |
| CN(O)C(=S)C(=O)C12CC3CC(CC(C3)C1)C2 [N-methyl-α-thio-1-adamantaneglyoxylohydroxamic acid] | 1.7 | 7.0 | 3.3 | 1.0 | 0.0 | 0.0 | 0.0 | 0.0 | 0.0 | 1.8 | 0.0 | 3.0 |
| CC(=O)ON(C)C(=S)C(=O)C(C)(C)C [acetate ester of N,3,3-trimethyl-2oxo-1-thiobutyrohydroxamate] | 0.0 | 9.0 | 0.0 | 0.0 | 0.0 | 0.0 | 5.0 | 0.0 | 0.0 | 0.0 | 0.0 |  |
